Selectivity ratio, CC50 and EC50 data for seven molecules are collected here from ChEMBL document CHEMBL3351884, “Semi-synthesis of oxygenated dolabellane diterpenes with highly in vitro anti-HIV-1 activity” (Bioorg Med Chem Lett, 2014).

Data set [1] can be described thus: Selectivity index, ratio of CC50 for human MT2 cells to EC50 for X4 tropic HIV1 3B infected in human MT2 cells. To be noted: read-out: Ratio CC50/EC50. Format: toxicity, cell-based.
Data set [2] can be described thus: Cytotoxicity against human MT2 cells after 4 to 5 days by MTT assay. Type of data set: cell-based. (Tetrazolium dyes change colour on reduction, which living cells bring about.)
Data set [3] has as its system Human immunodeficiency virus 1. Description: Antiviral activity against X4 tropic HIV1 3B infected in human MT2 cells assessed as protection against virus-induced cytopathic effect after 2 to 3 days by MTT assay. Format: functional, organism-based. To be noted: Human immunodeficiency virus 1, 3B. On the technique in general: Protection from cytopathic effect is a common read-out in antiviral testing.

With `C=C1CC[C@@H]2C(=C(C)C)C(=O)C[C@@]2(C)C[C@@H](O)[C@](C)(O)CC[C@@H]1O`, the selectivity ratio in data set [1] came to 236. In data set [2], the cytotoxic concentration (CC50) – broadly, the concentration that lowers cell viability or growth by half – is 920 µM. The EC50 – broadly, the concentration that produces a half-maximal response – in data set [3] was found to be 3.9 µM.

As to `CC(C)=C1C(=O)C[C@@]2(C)C[C@@H]3O[C@@]3(C)CC[C@@H]3O[C@@]3(C)CC[C@H]12`, the selectivity ratio in data set [1] is 2320. Moreover, the CC50 in data set [2] amounted to 1690 µM. Further, the EC50 in data set [3] was 0.73 µM.

In the case of `Cc1ccnc2c1NC(=O)c1cccnc1N2C1CC1` [NEVIRAPINE], the CC50 in data set [2] was determined as 320 µM.

Regarding `CC(C)=C1CC[C@@]2(C)C/C=C(\C)CC/C=C(\C)CC[C@H]12`, the selectivity ratio in data set [1] was determined as 8.7. Moreover, in data set [2], the half-maximal cytotoxic concentration (CC50) is 1830 µM. In addition, the EC50 in data set [3] worked out at 210 µM.

On to `CC(C)=C1C(=O)C[C@@]2(C)C/C=C(\CO)CC/C=C(\C)CC[C@H]12`, for which, in data set [1], the selectivity ratio was 1420. The molecule further registered a CC50 in data set [2] of 980 µM. For the same molecule, the EC50 in data set [3] is 0.69 µM.

With `C[C@H]1/C=C/[C@@]2(C)CC[C@@H](C(C)(C)O)[C@@H]2[C@@H](O)C[C@@](C)(O)/C=C\C1`, the selectivity ratio in data set [1] was 184. The molecule further registered a CC50 in data set [2] of 1130 µM. For the same molecule, in data set [3], the EC50 was found to be 6.16 µM.

As to `CC(C)=C1C(=O)C[C@@]2(C)C/C=C(\C)CC/C=C(\C)CC[C@H]12` [DOLABELLANE], in data set [1], the selectivity ratio was 13.5. For the same molecule, in data set [2], it took 2570 µM to reach half-maximal cytotoxicity (CC50). In addition, the EC50 in data set [3] was 190 µM.
